Values quoted from earlier work, collected in patent US20200179539A1, “Contrast Agents and Methods of Making the Same for Spectral CT That Exhibit Cloaking and Auto-Segmentation” (BOARD OF REGENTS, THE UNIVERSITY OF TEXAS SYSTEM, priority 2017, published 2020).

System: rat
Settings: rat oral

For `[Na+].[Na+].[O]=[W](=[O])([O-])[O-]` [sodium tungstate], the LD50 is given as 1,190 mg/Kg.
